Experimental data from PMC8587544, “Identification of Novel Antagonists Targeting Cannabinoid Receptor 2 Using a Multi-Step Virtual Screening Strategy” (Molecules, 2021).
Where two headings read alike, the source gives them in different places.

Key:
human CB2 receptor [1] = target: T1, human CB2 receptor (Homo sapiens, UniProt P34972); test: Radioligand binding assays at human CB2 receptor ([3H]-CP55940); settings: [3H]-CP55940 0.8 nM, 90 min, 30 °C, read-out: Binding Affinities pKi (converted)
T1 sequence (P34972 whole entry): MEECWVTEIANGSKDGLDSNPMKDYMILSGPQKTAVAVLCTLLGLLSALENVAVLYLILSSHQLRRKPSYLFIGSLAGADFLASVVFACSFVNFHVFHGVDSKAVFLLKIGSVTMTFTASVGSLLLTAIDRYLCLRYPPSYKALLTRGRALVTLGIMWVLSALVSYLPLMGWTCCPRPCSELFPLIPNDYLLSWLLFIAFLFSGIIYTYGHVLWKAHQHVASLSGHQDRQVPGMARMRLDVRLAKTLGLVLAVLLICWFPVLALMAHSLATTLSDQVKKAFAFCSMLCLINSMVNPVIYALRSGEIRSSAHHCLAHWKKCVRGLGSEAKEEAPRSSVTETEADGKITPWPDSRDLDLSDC
Method: The 15 compounds were purchased from J&K Scientific Ltd. (Shanghai, China). The radioligand binding assays and functional assays to CB2 receptor were performed by Pharmaron (Beijing) upon commission. In the CB2 receptor assays, [^3H]-CP55940 was used as the radioligand; the 15 compounds were tested in radioligand binding assays at human CB2 receptor ([^3H]-CP55940). The competition binding experiments of the test compounds at ten different concentrations and [^3H]-CP55940 (0.8 nM) against CB2 receptor (2 μg/well) were performed for 90 min at 30 °C in 500 μL of assay buffer (25 mM HEPES, 10 mM MgCl2, 1 mM CaCl2, 0.5% BSA, pH 7.4).

CB2 receptor = settings: cited from earlier work; for Ki: pharmacophore training set, ChEMBL27 database; for pKi: CB2 receptor
human CB2 receptor [2] = target: T1, human CB2 receptor; test: cAMP functional assay in Flpin-CHO-CB2 cells (antagonism of CP55940-mediated decrease in cAMP); type: cell-based
Method: Compounds 1, 3, 6, 7, 8, 12, and 15 were further evaluated by cAMP functional assays.
The CB2 receptor antagonistic activities of the 7 compounds were evaluated by investigating CB2-mediated cAMP production in Flpin-CHO-K1 cells functional assay. The Flpin-CHO-K1 cells that are engineered to stably express human CB2 receptor (the Flpin-CHO-CB2 cells) were cultured in the growth medium (Ham’s F12K + 10%FBS + 1×Ps + 800 ug/mL HB) at 37 °C and 5% CO2. The cells were then collected by centrifugation and resuspended in Hank’s balanced salt solution (HBSS), 0.1% bovine serum albumin (BSA), 20 mM N-(2-hydroxyethyl)-piperazine-N0-ethanesulfonic acid (HEPES), and 500 μM 3-isobutyl-1-methylxanthine (IBMX). The test compounds were serially diluted in DMSO at 2-fold dilutions of 10 concentrations ranging from 10,000 μM to 20 μM. The antagonistic activities were evaluated by assessing their ability to counteract the agonist (CP55940)-mediated decrease in cAMP accumulation. The accumulation of cAMP was determined by following the manufacturer’s instructions for a Perkin Elmer cAMP kit.

human CB1 receptor [3] = target: T2, human CB1 receptor (Homo sapiens, UniProt P21554); test: Radioligand binding assays at human CB1 receptor; settings: read-out: Binding affinities pKi (converted)
T2 sequence (P21554 whole entry): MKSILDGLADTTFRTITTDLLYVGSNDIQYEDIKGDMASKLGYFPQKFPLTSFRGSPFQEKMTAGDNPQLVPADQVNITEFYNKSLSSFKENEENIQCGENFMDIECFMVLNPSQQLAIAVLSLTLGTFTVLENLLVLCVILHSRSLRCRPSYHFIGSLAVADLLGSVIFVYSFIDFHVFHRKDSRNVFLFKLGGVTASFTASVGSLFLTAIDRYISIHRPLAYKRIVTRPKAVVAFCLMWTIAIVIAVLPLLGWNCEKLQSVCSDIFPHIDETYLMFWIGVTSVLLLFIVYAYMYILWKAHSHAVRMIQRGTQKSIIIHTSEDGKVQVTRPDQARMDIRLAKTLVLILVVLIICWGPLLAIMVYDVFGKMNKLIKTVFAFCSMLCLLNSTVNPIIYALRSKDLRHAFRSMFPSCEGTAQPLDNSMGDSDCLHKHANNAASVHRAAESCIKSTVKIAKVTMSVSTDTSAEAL
Method: (§1) The binding and functional selectivity of the five compounds were tested by performing radioligand binding assays and cAMP functional assays against the CB1 receptor.

human CB1 receptor [4] = target: T2, human CB1 receptor; test: cAMP functional assay against CB1 receptor; type: cell-based
Method: as §1

[5] = human CB2 receptor, Flpin-CHO-CB2 cells, antagonism of CP55940, read-out: cAMP Assay pIC50 (converted)
[6] = CB1 receptor, cAMP functional assay, read-out: antagonistic activities against the CB1 receptor
[7] = human CB1 receptor, read-out: cAMP assay pIC50 (converted)

Cc1ccc(C)c(CNC(=O)c2cc(-c3cccs3)nn2Cc2ccc(F)cc2)c1 [Compound 14]
Ki (human CB2 receptor [1]): 17.8 µM

CCCCNC(=O)Cn1c(=O)n(-c2cccc(C(F)(F)F)c2)c(=O)c2sccc21 [Compound 10]
Ki (human CB2 receptor [1]): 17.8 µM

CC(=O)Nc1c2n(c3ccc(F)cc13)CC(C)(C(=O)NC1CCCC1)N(Cc1ccc(F)cc1)C2=O (stereo not shown) [Compound 13]
Ki (human CB2 receptor [1]): 33.1 µM

COc1cc(C2CC(=O)Nc3c2c(=O)n(C)c(=O)n3C)ccc1OCc1cccc(F)c1 (stereo not shown) [Compound 2]
Ki (human CB2 receptor [1]): > 100 µM

CCCCCn1cc(C(=O)NC23CC4CC(CC(C4)C2)C3)c(=O)c2cc(-c3ccc(O)cc3)ccc21 [CHEMBL1215918]
Ki (CB2 receptor): 4.2 nM

SR144528
pKi (CB2 receptor): 8.3–9.2

O=C(CSc1nc2nccnc2c(=O)n1Cc1ccc2c(c1)OCO2)Nc1ccc(F)cc1 [Compound 5]
Ki (human CB2 receptor [1]): 38 µM

NC(=O)c1nc(Nc2ccccc2)sc1NC(=O)C12CC3CC(CC(C3)C1)C2 [Compound 1]
Ki (human CB2 receptor [1]): 1.58 µM | IC50 (human CB2 receptor [2]; [5]): > 20 µM

CCCCCCC1(c2cc(O)c3c(c2)OC(C)(C)[C@@H]2CC=C(C)C[C@@H]32)CCCC1 [CHEMBL108868]
Ki (CB2 receptor): 1.91 nM

COc1cc(C(O)c2cccs2)cc(OC)c1-c1cc(Cl)cc(Cl)c1 (stereo not shown) [CHEMBL1076685]
Ki (CB2 receptor): 0.2 nM

O=c1c2nccnc2nc(SCc2cccc(F)c2)n1Cc1cccs1 [Compound 12]
Ki (human CB2 receptor [1]): 3.55 µM | Ki (human CB1 receptor [3]): 38 µM | IC50 (human CB2 receptor [2]; [5]): 5.62 µM | IC50 (human CB1 receptor [4]; [6]): > 20 µM

CCOC(=O)c1c(NC(=O)C23CC4CC(CC(C4)C2)C3)sc2c1CCCC2 [CHEMBL3909238]
Ki (CB2 receptor): 2.15 nM

COc1ccccc1Nc1sc(C(=O)c2ccccc2)c(N)c1S(=O)(=O)c1ccccc1 [Compound 3]
Ki (human CB2 receptor [1]): 4.9 µM | Ki (human CB1 receptor [3]): 18.6 µM | IC50 (human CB2 receptor [2]; [5]): 0.339 µM | IC50 (human CB1 receptor [4]; [6]): > 20 µM

CC(=O)N1CCc2c(sc3c2c(=O)n(Cc2ccccc2)c(=O)n3Cc2c(F)cccc2Cl)C1 [Compound 7]
Ki (human CB2 receptor [1]): 6.61 µM | Ki (human CB1 receptor [3]): 16.6 µM | IC50 (human CB2 receptor [2]; [5]): 3.47 µM | IC50 (human CB1 receptor [4]; [7]): 7.08 µM

COc1ccc(-n2c(=O)c3c4c(sc3n(Cc3ccc(F)cc3)c2=O)CN(C(C)=O)CC4)cc1 [Compound 6]
Ki (human CB2 receptor [1]): 7.08 µM | IC50 (human CB2 receptor [2]; [5]): > 20 µM

O=C(Cn1c(=O)n(Cc2ccccc2)c(=O)c2sc3ccccc3c21)NC1CCCCC1 [Compound 4]
Ki (human CB2 receptor [1]): > 100 µM

Cc1cc(S(=O)(=O)c2cc3cc(C(C)(C)C)cc(O)c3oc2=O)ccc1F [Compound 9]
Ki (human CB2 receptor [1]): 23.4 µM

COCCn1c(C)c(C)sc1=NC(=O)C1C(C)(C)C1(C)C [CHEMBL1668519]
Ki (CB2 receptor): 0.64 nM

COc1ccc(C(=O)c2c(C)n(CCN3CCOCC3)c3cc(I)ccc23)cc1 [AM630]
pKi (CB2 receptor): 7.5

CSC(=S)N1CC2(CCCCC2)CS/C1=N\c1cccc(C(C)C)c1 [CHEMBL231719]
Ki (CB2 receptor): 2.5 nM

Cc1cccn2c(=O)c(/C=C3\SC(=S)N(Cc4ccco4)C3=O)c(NCC3CCCO3)nc12 (stereo not shown) [Compound 8]
Ki (human CB2 receptor [1]): 0.219 µM | Ki (human CB1 receptor [3]): 3.39 µM | antagonistic activity towards the CB2 receptor in comparison to the CB1 receptor (selectivity) (human CB2 receptor [2]; cAMP functional assays, CB2 over CB1): more than 100 times | IC50 (human CB2 receptor [2]; [5]): 0.117 µM | IC50 (human CB1 receptor [4]; [6]): > 20 µM | IC50 (human CB1 receptor [4]; [7]): > 20 µM

C[C@@H](NS(=O)(=O)C(F)(F)F)c1ccc(S(=O)(=O)c2ccoc2S(=O)(=O)c2ccccc2F)cc1 [CHEMBL1270480]
Ki (CB2 receptor): 4.4 nM

CN(C(=O)c1nn(C)c2c1COc1ccccc1-2)c1cccc(C(F)(F)F)c1 [Compound 11]
Ki (human CB2 receptor [1]): 13.8 µM

O=C(NC1CCCCCC1)c1cc(-c2cccs2)nn1Cc1ccc(F)cc1 [Compound 15]
Ki (human CB2 receptor [1]): 1.74 µM | Ki (human CB1 receptor [3]): 25.7 µM | IC50 (human CB2 receptor [2]): 2.82 µM | IC50 (human CB1 receptor [4]; cAMP assay pIC50, human CB1 receptor): 4.57 µM
